Experiments:
Format in all cases: in vivo, human
[1] = system: ADHD subjects; assay: BNA pattern similarity from EEG data of ADHD subjects before and following treatment with MPH
Excerpt: The BNA patterns shown in FIGS. 6A-D are associated subject-specific BNA patterns constructed from EEG data recorded from a particular ADHD subject. The black dots in FIGS. 6A-D show the locations of the EEG electrodes. The color codes in these BNA patterns are the same as defined above. The subject-specific BNA patterns shown in FIGS. 6A-B describe the association of the ADHD subject to a group of untreated ADHD subjects, and the BNA patterns shown in FIGS. 6C-D describe the association of the ADHD subject to a group of ADHD subjects all treated with methylphenidate (MPH). The subject-specific BNA patterns shown in FIGS. 6A and 6C are based on EEG data recorded from the ADHD subject before any treatment, and subject-specific BNA patterns shown in FIGS. 6B and 6D are based on EEG data recorded from the ADHD subject following a treatment with MPH.
The baseline annotated BNA pattern constructed from the group of untreated ADHD subjects, and the baseline annotated BNA pattern constructed from the same group of subjects, but following treatment with MPH are shown in FIGS. 6E and 6F, respectively.
A BNA pattern similarity was calculated for each of the subject-specific BNA patterns shown in FIGS. 6A-D. The calculated similarity corresponding to the BNA pattern of FIG. 6A is 0.73, the calculated similarity corresponding to the BNA pattern of FIG. 6B is 0.19, the calculated similarity corresponding to the BNA pattern of FIG. 6C is 0.56, and the calculated similarity corresponding to the BNA pattern of FIG. 6D is 0.6.
The BNA patterns shown in FIGS. 7A-D were constructed from EEG data recorded from a different ADHD subject, which was also treated with MPH according to the same protocol as described above with respect to the responder subject of FIGS. 6A-D. The black dots in FIGS. 7A-D show the locations of the EEG electrodes, and the color codes in these BNA patterns is the same as defined above. Thus, the subject-specific BNA patterns shown in FIGS. 7A-B describe the association of the ADHD subject to a group of untreated ADHD subjects, and the BNA patterns shown in FIGS. 7C-D describe the association of the ADHD subject to a group of ADHD subjects all treated with methylphenidate (MPH). The subject-specific BNA patterns shown in FIGS. 7A and 7C are based on EEG data recorded from the ADHD subject before any treatment, and subject-specific BNA patterns shown in FIGS. 7B and 7D are based on EEG data recorded from the ADHD subject following a treatment with MPH.
A BNA pattern similarity was calculated for each of the subject-specific BNA patterns shown in FIGS. 7A-D. The calculated similarity corresponding to the BNA pattern of FIG. 7A is 0, the calculated similarity corresponding to the BNA pattern of FIG. 7B is 0, the calculated similarity corresponding to the BNA pattern of FIG. 7C is 0.06, and the calculated similarity corresponding to the BNA pattern of FIG. 7D is 0.

[2] = system: healthy volunteer subjects; assay: BNA pattern analysis of EEG data during working memory test (encoding/retrieval), drug vs placebo; details: for effect on central and frontal activation in group BNA pattern / effect on fronto-parietal part / connectivity of group BNA pattern: group BNA patterns (FIGS. 10C-D, 10G-H) vs placebo
[3] = system: healthy volunteer subjects; assay: Clinical observation of behavioral endpoint following treatment with scopolamine
Method: A BNA pattern similarity was calculated for each of the subject-specific BNA patterns shown in FIGS. 8A-D. The calculated similarities are 0.937, 0.079, 1.0 and 0.94, respectively. It is recognized by the present inventors that these similarity values indicate that the responsivity to scopolamine is high for the first subject (FIGS. 8A and 8B) and low for the second subject (FIGS. 8C and 8D).

[4] = system: healthy volunteer subjects; assay: BNA pattern analysis of EEG data during auditory oddball task, scopolamine vs placebo; details: for BNA pattern similarity to placebo group baseline BNA pattern: following scopolamine, oddball task
Excerpt: FIGS. 8A-D show associated subject-specific BNA patterns constructed from EEG data recorded from two healthy volunteer subjects. The black dots in FIGS. 8A-D show the locations of the EEG electrodes, and the color codes in these BNA patterns are the same as defined above. The subject-specific BNA patterns shown in FIGS. 8A-D describe the association of the subjects to a group of healthy subjects following treatment with a placebo drug and while performing an attention task related oddball task.
FIGS. 8A and 8C are subject-specific BNA patterns constructed from EEG data collected from a first subject (FIG. 8A) and a second subject (FIG. 8C) following treatment with a placebo, and FIGS. 8B and 8D are subject-specific BNA patterns constructed from EEG data collected from the first subject (FIG. 8B) and the second subject (FIG. 8D) following treatment with a scopolamine drug. Scopolamine is an anticholinergic drug with inhibitory effect on M2-cholinergic receptors of excited type. It has an inhibitory effect on the cerebral cortex, typically inducing slight-anesthetic effect.
All subjects were administered with Scopolamine 0.4 mg, and Saline serving as a placebo drug, on consecutive days, in a randomized order.
In the auditory oddball target detection test, the subjects were requested to respond to auditory target stimuli that occur infrequently and irregularly within a series of standard stimuli. The standard stimulus was in the form of a 1000 Hz tone, and the target stimulus was in the form of a 2000 Hz tone. The intervals between two successive stimuli (standard or target) were 1.5 seconds. Each subject was exposed to a series of stimuli, of which 80% were standard stimuli and 10% were target stimuli. The additional 10% were background sounds (referred to as “novel stimuli”).
All subjects underwent EEG recordings during the tests. ERPs were recorded using 64 Ag—AgCl active electrodes (ActiveTwo, Biosemi) attached to the scalp by located according to the 10-20 international system, and filled with a conducting gel (Signa, Parker).
Two group BNA patterns (one BNA pattern for the placebo group and one BNA pattern for the scopolamine group), and several subject-specific BNA patterns were constructed according to the teachings of the present embodiments as described in Example 1 above. The similarities between the subject-specific BNA pattern and the group BNA patterns were calculated as described in Example 1 above, except for the following provisions on data selection.
Two types of group BNA patterns were constructed in this example. A first type, referred to herein as a DIFF BNA pattern, described the activity that most differentiated between two groups or two conditions. In this type, data features that appeared in at least 11 subjects out of a maximum number of 15 subjects in one group, but a difference threshold (the number of subjects that had the pattern in one group minus the number of subjects that had the pattern in the other group) of 2 subjects, was used to construct the BNA pattern. […] The SI quantities for this type of BNA patterns were calculated as described in Example 1 above.

For COC(=O)C(c1ccccc1)C1CCCCN1 (stereo not shown) [MPH, methylphenidate], the “responsiveness of the subject to the treatment, as indicated by similarity values” ([1]; ADHD subject of FIGS. 6A-D) was “responsive to the treatment”, the “BNA pattern similarity to the baseline BNA pattern for the untreated ADHD group” value ([1]; ADHD subject of FIGS. 6A-D (FIG. 6B), following a single dose treatment with MPH, before treatment 0.73) was 0.19 and the “BNA pattern similarity to the baseline BNA pattern for the treated ADHD group” value ([1]; ADHD subject of FIGS. 6A-D (FIG. 6D), following a single dose treatment with MPH, before treatment 0.56) was 0.6. For the same molecule, the “responsiveness of the subject to the treatment, as indicated by similarity values” ([1]; ADHD subject of FIGS. 7A-D) was “not responsive to the treatment”, the “BNA pattern similarity to the group of untreated ADHD subjects” value ([1]; different ADHD subject of FIGS. 7A-D (FIG. 7B), following treatment with MPH, before treatment 0) was 0 and the “BNA pattern similarity to the group of ADHD subjects treated with MPH” value ([1]; different ADHD subject of FIGS. 7A-D (FIG. 7D), following treatment with MPH, before treatment 0.06) was 0.
CN1[C@@H]2C[C@@H](OC(=O)[C@H](CO)c3ccccc3)C[C@H]1[C@@H]1O[C@@H]12 [scopolamine] was tested, and the pattern differentiation level ([2]; encoding placebo DIFF BNA pattern, placebo vs scopolamine group) was 11, the pattern differentiation level ([2]; encoding scopolamine DIFF BNA pattern, scopolamine vs placebo group) was 10 and the pattern differentiation level ([2]; retrieval placebo DIFF BNA pattern, placebo vs scopolamine group) was 13. For the same molecule, the pattern differentiation level ([2]; retrieval scopolamine DIFF BNA pattern, scopolamine vs placebo group) was 14, the “number of scopolamine subjects fulfilling the encoding placebo DIFF BNA pattern” value ([2]; working memory test, encoding process (FIGS. 10A, 32-34), 13 in placebo group) was “Two” and the “number of subjects in the scopolamine group showing the encoding scopolamine DIFF BNA pattern (group-subject value)” value ([2]; working memory test, encoding process (FIGS. 10C, 35A-B), three placebo subjects) was 13 subjects. The “effect on central and frontal activation in group BNA pattern” value ([2]; working memory test) was “extensive compensatory central and frontal activation”, the “effect on fronto-parietal part / connectivity of group BNA pattern” value ([2]; working memory test) was “low connectivity between frontal and parietal regions” and the “number of scopolamine subjects fulfilling the retrieval placebo DIFF BNA pattern” value ([2]; working memory test, retrieval process (FIGS. 10B, 30A-C), 14 in placebo group) was “One”. The “number of subjects in the scopolamine group showing the retrieval scopolamine DIFF BNA pattern (group-subject value)” value ([2]; working memory test, retrieval process (FIGS. 10D, 31A-E), one placebo subject) was 15 subjects, the “decrease in behavioral endpoint” value ([3]; first subject) was 70% and the “change in behavioral endpoint” value ([3]; second subject) was “no change”. For the same molecule, the “BNA pattern similarity to placebo group baseline BNA pattern” value ([4]; first healthy subject (FIG. 8B), after placebo 0.937) was 0.079, the “responsivity to scopolamine, as indicated by similarity values” ([4]; first subject (FIGS. 8A and 8B)) was “high” and the “number of scopolamine subjects fulfilling the placebo pattern” value ([4]; oddball test, detection of novel stimuli, Delta frequency pattern (FIGS. 29A-D), 14 in placebo group) was 0 subjects. The “number of subjects in the scopolamine group showing the scopolamine pattern (group-subject value)” value ([4]; oddball test, detection of target stimuli, Beta (12-18 Hz) pattern (FIGS. 28A-C), Scopolamine 0.4 mg, 15 subjects, 1 placebo subject) was 12 subjects, the “number of scopolamine subjects fulfilling the placebo pattern” value ([4]; oddball test, detection of target stimuli, Delta frequency pattern (FIGS. 27A-D), Scopolamine 0.4 mg, 15 subjects, 12 in placebo group) was 4 subjects and the pattern differentiation level ([4]; placebo pattern, detection of novel stimuli (FIGS. 29A-D), placebo vs scopolamine group) was 14. The pattern differentiation level ([4]; placebo pattern, detection of target stimuli (FIGS. 27A-D), placebo vs scopolamine group) was 8, the pattern differentiation level ([4]; scopolamine pattern, detection of target stimuli (FIGS. 28A-C), scopolamine vs placebo group) was 11 and the “BNA pattern similarity to placebo group baseline BNA pattern” value ([4]; second healthy subject (FIG. 8D), after placebo 1.0) was 0.94. For the same molecule, the “responsivity to scopolamine, as indicated by similarity values” ([4]; second subject (FIGS. 8C and 8D)) was “low”.
For CNC1(c2ccccc2Cl)CCCCC1=O (stereo not shown) [ketamine], the “effect on central and frontal activation in group BNA pattern” value ([2]; working memory test) was “increased central and frontal activation”, the “effect on fronto-parietal part / connectivity of group BNA pattern” value ([2]; working memory test) was “No significant change” and the “effect on right lateralization in group BNA pattern” value ([2]; working memory test, group BNA patterns (FIGS. 10G-H) vs placebo) was “decreased right lateralization”.
